Results published in patent US11345694B2, “Antibacterial compounds” (DISCUVA LTD., priority 2017, dated 2022).
≈ marks a conversion by molar mass, not a printed value. Where two headings read alike, the source gives them in different places.

Key:
[1] = test system: human hepatocarcinoma cell line ATCC HB-8065 (HepG2); test: Human cell viability (CellTiter-Glo); assay type: cell-based; details: HepG2 cells, 24 h incubation, CellTiter-Glo luminescence, 0.2-100 μM, read-out: IC50 values against the HepG2 cell line
Protocol: Compounds are assessed for potential non-specific cytotoxic effects against the human hepatocarcinoma cell line ATCC HB-8065 (HepG2). HepG2 cells are seeded at 20,000 cells/well in 96-well microtitre plates in minimal essential medium (MEM) supplemented with a final concentration of 10% FBS. After 24 h, compound dilutions are prepared in MEM supplemented with a final concentration of 1% FBS, and added to the cells. Compounds are tested in two-fold serial dilutions over a final concentration range of 0.2-100 μM in a final DMSO concentration of 1% vol/vol. Thioridazine is used as a positive control. Cells are incubated with compound at 37° C. and 5% CO2 for a further 24 h, after which time the CellTiter-Glo reagent (Promega) is added. Luminescence is measured on a Perkin Elmer Envision plate reader. Data are analysed using a 4 parameter logistic regression to determine the concentration of compound that inhibits cell viability by fifty percent (IC50).

[2] = test system: K. pneumoniae NCTC 13438 (KP1); test: MIC broth microdilution; assay type: cell-based, Klebsiella pneumoniae; details: for MIC: Klebsiella pneumoniae, NCTC13438
Protocol: (§1) Minimum Inhibitory Concentrations (MICs) versus planktonic bacteria are determined by the broth microdilution procedure according to the guidelines of the Clinical and Laboratory Standards Institute (Clinical and Laboratory Standards Institute. Methods for Dilution Antimicrobial Susceptibility Tests for Bacteria That Grow Aerobically; Approved Standard-tenth Edition. CLSI document M07-A10, 2015). The broth dilution method involves a two-fold serial dilution of compounds in 96-well microtitre plates, giving a final concentration range of 0.39-200 μM and a maximum final concentration of 2% DMSO. The bacterial strains tested include Escherichia coli K12 (EC), E. coli NCTC 13441 (UPEC), Staphylococcus aureus ATCC 35556 (SA), Acinetobacter baumannii ATCC 17978 (AB), Pseudomonas aeruginosa ATCC 33359 (PA), Enterobacter cloacae DSM 30054 (Ed), Serratia marcescens SL1344 (Sm), Salmonella typhimurium XNAA5 (St), Klebsiella pneumoniae ATCC 10031 (KP2), K. pneumoniae NCTC 13438 (KP1), K. pneumoniae ATCC 700603 (KP3), Klebsiella pneumoniae ATCC 51504 (KP4), K. pneumoniae H154680676 (KP5), K. pneumoniae H154020667 (KP6), K. pneumoniae H154640784 (KP7), K. pneumoniae H154600588 (KP8), K. pneumoniae H154300688 (KP9), K. pneumoniae H151440671 (KP10). Strains are grown in cation-adjusted Müller-Hinton broth or on Luria Bertoni agar at 37° C. in an ambient atmosphere. The MIC is determined as the lowest concentration of compound that inhibits growth following a 20-24 hour incubation period.

[3] = test system: Acinetobacter baumannii ATCC 17978 (AB); test: MIC broth microdilution; assay type: cell-based; details: for MIC: ATCC17978
Protocol: as §1

[4] = test system: Klebsiella pneumoniae ATCC 10031 (KP2); test: MIC broth microdilution; assay type: cell-based; details: for MIC: ATCC10031
Protocol: as §1

[5] = test system: Pseudomonas aeruginosa ATCC 33359 (PA); test: MIC broth microdilution; assay type: cell-based; details: for MIC: ATCC33359
Protocol: as §1

[6] = test system: Staphylococcus aureus ATCC 35556 (SA); test: MIC broth microdilution; assay type: cell-based; details: for MIC: ATCC35556
Protocol: as §1

[7] = test system: Escherichia coli K12 (EC); test: MIC broth microdilution; assay type: cell-based
Protocol: as §1

[8] = test system: E. coli NCTC 13441 (UPEC); test: MIC broth microdilution; assay type: cell-based, Escherichia coli; details: for MIC: Escherichia coli, NCTC13441
Protocol: as §1

Row | Compound | IC50 ([1]; Homo sapiens) [µM] | MIC [2] [µM] | MIC [3] [µM] | MIC [4] [µM] | MIC [5] [µM] | MIC [6] [µM] | MIC [7] [µM] | MIC [8] [µM] | IC50 [1] [µM] | MIC KP1 [2] | MIC AB [3] | MIC KP2 [4] | MIC PA [5] | MIC SA [6] | MIC EC [7] | MIC UPEC [8]
1 | Nc1nc(-c2ccc3c(c2)CCO3)c(-c2ccncc2)[nH]1 [Example 38, 4-(2,3-Dihydrobenzofuran-5-yl)-5-(pyridin-4-yl)-1H-imidazol-2-amine] | > 100 | 1 to 10 (≈ 0.278 to 2.78 µg/mL) | > 100 | ≤ 1 | > 100 | > 100 | ≤ 1 | ≤ 1 | – | – | – | – | – | – | – | –
2 | COc1ccc(-c2[nH]c(N)nc2-c2ccnc(C)c2)cc1OC [Example 1, 5-(3,4-Dimethoxyphenyl)-4-(2-methylpyridin-4-yl)-1H-imidazol-2-amine] | > 100 | > 100 | > 100 | ≤ 1 | > 100 | > 100 | 10 to 100 (≈ 3.1 to 31 µg/mL) | 10 to 100 (≈ 3.1 to 31 µg/mL) | – | – | – | – | – | – | – | –
3 | Cc1cc(-c2nc(N)[nH]c2-c2ccc(OCC3CC3)c(F)c2)ccn1 [Example 13, 5-(4-(Cyclopropylmethoxy)-3-fluorophenyl)-4-(2-methylpyridin-4-yl)-1H-imidazol-2-amine] | 25 to 100 | 10 to 100 (≈ 3.38 to 33.8 µg/mL) | > 100 | ≤ 1 | > 100 | > 100 | 1 to 10 (≈ 0.338 to 3.38 µg/mL) | 1 to 10 (≈ 0.338 to 3.38 µg/mL) | – | – | – | – | – | – | – | –
4 | Cc1cc(-c2[nH]c(N)nc2-c2ccc(O)c(O)c2)ccn1 [Example 71, 4-(2-Amino-5-(2-methylpyridin-4-yl)-1H-imidazol-4-yl)benzene-1,2-diol] | > 100 | > 100 | > 100 | 1 to 10 (≈ 0.282 to 2.82 µg/mL) | > 100 | > 100 | 10 to 100 (≈ 2.82 to 28.2 µg/mL) | 10 to 100 (≈ 2.82 to 28.2 µg/mL) | – | – | – | – | – | – | – | –
5 | Cc1cc(-c2[nH]c(C(=O)O)nc2-c2ccc3c(c2)OCCO3)ccn1 [Example 86, 4-(2,3-dihydrobenzo[b][1,4]dioxin-6-yl)-5-(2-methylpyridin-4-yl)-1H-imidazole-2-carboxylate] | – | – | – | – | – | – | – | – | > 100 | D (a MIC of over 100 is assigned the letter D) | D (a MIC of over 100 is assigned the letter D) | B (a MIC of from 1 to 10 is assigned the letter B) | D (a MIC of over 100 is assigned the letter D) | D (a MIC of over 100 is assigned the letter D) | D (a MIC of over 100 is assigned the letter D) | D (a MIC of over 100 is assigned the letter D)

Second part, led by results:

Row | IC50 ([1]; Homo sapiens) [µM] | MIC [2] [µM] | MIC [3] [µM] | MIC [4] [µM] | MIC [5] [µM] | MIC [6] [µM] | MIC [7] [µM] | MIC [8] [µM] | IC50 [1] [µM] | Compound | MIC KP1 [2] | MIC AB [3] | MIC KP2 [4] | MIC PA [5] | MIC SA [6] | MIC EC [7] | MIC UPEC [8]
6 | > 100 | 10 to 100 (≈ 3.21 to 32.1 µg/mL) | > 100 | ≤ 1 | > 100 | > 100 | 1 to 10 (≈ 0.321 to 3.21 µg/mL) | 1 to 10 (≈ 0.321 to 3.21 µg/mL) | – | Cc1cc(-c2[nH]c(CN)nc2-c2ccc3c(c2)NCCO3)ccn1 [Compound 88] | – | – | – | – | – | – | –
7 | > 100 | 10 to 100 (≈ 3.22 to 32.2 µg/mL) | > 100 | ≤ 1 | > 100 | > 100 | 1 to 10 (≈ 0.322 to 3.22 µg/mL) | 1 to 10 (≈ 0.322 to 3.22 µg/mL) | – | Cc1cc(-c2[nH]c(CN)nc2-c2ccc3c(c2)OCCO3)ccn1 [Example 87, (4-(2,3-Dihydrobenzo[b][1,4]dioxin-6-yl)-5-(2-methylpyridin-4-yl)-1H-imidazol-2-yl)methanamine] | – | – | – | – | – | – | –
8 | > 100 | 1 to 10 (≈ 0.393 to 3.93 µg/mL) | > 100 | ≤ 1 | > 100 | > 100 | 1 to 10 (≈ 0.393 to 3.93 µg/mL) | 1 to 10 (≈ 0.393 to 3.93 µg/mL) | – | COC(=O)CCN1CCOc2ccc(-c3nc(N)[nH]c3-c3ccnc(C)c3)cc21 [Example 61, Methyl 3-(6-(2-amino-5-(2-methylpyridin-4-yl)-1H-imidazol-4-yl)-2,3-dihydro-4H-benzo[b][1,4]oxazin-4-yl)propanoate] | – | – | – | – | – | – | –
9 | > 100 | ≤ 1 | > 100 | ≤ 1 | > 100 | > 100 | ≤ 1 | ≤ 1 | – | Cc1cc(-c2[nH]c(N)nc2-c2ccc3c(c2)N(CCN)CCO3)ccn1 [Example 91, 4-(4-(2-Aminoethyl)-3,4-dihydro-2H-benzo[b][1,4]oxazin-6-yl)-5-(2-methylpyridin-4-yl)-1H-imidazol-2-amine] | – | – | – | – | – | – | –
